Key:
rat = experiment: Loss of righting reflex / anesthesia after intravenous injection in rats; assay type: in vivo; settings: for duration of anesthesia / loss of righting reflex: 10 mg/kg i.v. bolus; for onset of loss of righting reflex: two rats
Description: For Examples 2 and 3, compounds were administered into the […] of the rat. The vehicle was 12-16% Cremophor EL dissolved in saline. The purity of each compound was approximately 96%.
Compound 1 was synthesized as described in Example 1. Approximately 15 mg/ml of the suspension were injected into the lateral tail vein of two rats (weight 300-320 g). […] The loss of righting reflex lasted for about 4 to 5 minutes. Upon awaking, the animals became active (e.g., started exploring behavior, walking, chewing, etc.).
Compound 3 (prepared as in Example 1) was formulated in Cremophor EL at a concentration of 10 mg/ml. Compound 3 was injected into the lateral tail vein of two rats at a dose of 10 mg/kg.

GABA receptors = experiment: In vitro assay of direct activation of GABA receptors; assay type: cell-based; settings: FIG. 2
Source text: FIG. 2 is a graph showing the direct activation of GABA receptors by phenolic compounds.
Propofol and analogs are known to activate GABA receptors (see, e.g., Trapani et al., J. Med. Chem. 1998, 41, 1846-1854, incorporated herein by reference). While the relationship between GABA activation and anesthetic activity is not completely clear, it is believed that the ability of a compound to directly activate GABA receptors may be related to the anesthetic, sedative, and/or anxiolytic activity of the compound. Compounds of the invention can be tested in vitro electrophysiological assays to determine the ability of the compound to activate GABA receptors.
Certain compounds were tested in an in vitro assay to determine whether the compounds were capable of direct activation of GABA receptors.

[1] = lateral tail vein injection, approximately 15 mg/ml suspension

SMILES | duration of anesthesia / loss of righting reflex (rat) | potency relative to propofol (rat; 10 mg/kg, inferred from duration of loss of righting reflex) | onset of loss of righting reflex (rat; lateral tail vein injection, 10 mg/kg, 10 mg/ml in Cremophor EL) | direct activation of GABA receptors (GABA receptors) | response to tail pinching during loss of righting reflex (rat; [1]) | shaking or tremors during induction or recovery (rat; [1]) | onset of loss of righting reflex (rat; lateral tail vein injection, approximately 15 mg/ml suspension, Cremophor EL/saline vehicle)
CC(C)c1cccc(C(C)C(F)(F)F)c1O (stereo not shown) [Compound 3, 2-isopropyl-6-(1-trifluoromethyl)ethyl phenol] | approximately 10 min | more potent than propofol | immediately lost their righting reflex | found to have activity | – | – | –
CC(C)c1cccc(CC(F)(F)F)c1O [Compound 1, 2-isopropyl-6-(2,2,2-trifluoroethyl) phenol] | – | – | – | found to have activity | did not respond to tail pinching | did not exhibit shaking or tremors | immediately lost their righting reflex
CC(C)c1cc(C(O)C(F)(F)F)cc(C(C)C)c1O (stereo not shown) [MB003, 2,6-Diisopropyl-4-(2,2,2-trifluoro-1-hydroxy-ethyl)-phenol] | – | – | – | found to have activity | – | – | –
CC(C)c1cccc(C(C)C)c1O [Propofol, 2,6-diisopropylphenol, reference compound] | 7.5 min | – | – | – | – | – | –

Source: patent publication US7705191B2, “Hydrofluoroalkyl phenols having anesthetic properties” (University of Iowa Research Foundation, priority 2006, dated 2010)
